Series [1] is described as follows: logD7.4 by shake-flask method (n-octanol/PBS). In kind it is physicochemical. Conditions: n-octanol/PBS pH 7.4, n = 4. How it is done:
The logD 7.4 value of [ ^ 18 F]-SK60 was experimentally determined by the conventional shake-flask method using n-octanol and PBS as the partition system.
The two phases were presaturated with each other. A solution of the radiotracer (10 μL, 1.1 MBq) was added to a 15 mL plastic centrifuge tube containing n-octanol (3 mL) and PBS (3 mL). The tube was vortexed for 3 min and centrifuged at 3500 rpm for 5 min (Anke TDL80–2B, China). […] The logD 7.4 was determined as the ratio of cpm/mL of the n-octanol layer to that of the buffer layer. Samples from the n-octanol layer were redistributed until consistent distribution coefficient values were obtained. The measurement was carried out in triplicate and repeated three times.

For the next series, the system named is IDH1R132H–U251 cells. The series can be described thus: In vitro cell uptake of [18F]SK60 in IDH1R132H-U251 cells. Format: cell-based, Human. Conditions: 240 min incubation. How it is done: Human U251 glioblastoma cells, stably transfected and overexpressing either wild-type IDH1 (IDH1-U251) or IDH1R132H (IDH1R132H–U251), were obtained from Jaqueline Kessler and Dirk Vordermark (Department of Radiotherapy, Martin Luther University Halle-Wittenberg, Halle/Saale, Germany). Cells were grown in RPMI 1640 medium (10% FCS), supplemented with puromycin, to ensure the cultivation of transfected cells only.
The IDH1-U251 and IDH1R132H–U251 cells were seeded at 4,00,000 cells/mL in a 24-well cell culture plate 1 day before the experiment. The medium was replaced by 400 μL/well, and 4 μL of a 100-x stock solution of the respective inhibitor in 10% DMSO or vehicle (10% DMSO) was added about 2 h before the experiment. The experiment was started with the addition of 100 μL of [ ^ 18 F]-SK60 (0.477 ± 0.002 MBq/mL; 4.86 ± 0.33 nM) diluted in cell culture medium per well, and the well plates were incubated in a humidified-air atmosphere incubator containing 5% CO2 at 37 °C for various times. The incubation was stopped by aspiration of the supernatant and washing the cell layers twice with prechilled PBS (500 μL/well). […] The concentrations of surface-bound and internalized activities per well were calculated as a percentage of the applied dose per well and normalized to the protein concentration per well (% AD/μg protein). […]

Series [2] deals with IDH1R132H-U251 cells (target-positive) and IDH1-U251 cells (target-negative). Description: Real-time radioligand binding (LigandTracer) to live U251 cells. The arrangement: species or system Human. Conditions: room temperature, medium without or with 5 % BSA. How it is done:
Real-time radioligand binding
Real-time radioligand binding using LigandTracer®
The LigandTracer (LigandTracer Yellow, Ridgeview Instruments AB, Uppsala, Sweden) system allows assessment of binding kinetics (association rate constant ka and dissociation rate constant kd) and therefore dissociation constant (KD).
Briefly, target-positive/-negative cells are seeded to different quadrants of a petri dish (Thermo Scientific Nunclon Delta #150350). Here, approximately 5x10^4 target-positive cells (IDH1R132H-U251 cells) and target-negative cells (IDH1-U251 cells) were seeded in a ~20 mm round spot (0.5 mL of a solution of 1x10^5 cells/mL), three days before the experiment. […]
The culture medium is removed and replaced with 3 mL CO2-independent medium (Gibco #18045088, ThermoFisher Germany) without or with bovine serum albumin (BSA) (5 %; #3737.3, Carl Roth GmbH, Karlsruhe, Germany). In the instrument, the dish rotates on an inclined base, where cells in medium (3 mL) are located on one side, while radioactivity is detected on the opposite side. This allows continuous measurements of two or more alternating parts of the dish for bound radioactivity (e.g. target-positive) against background (e.g. no cells) or target-negative cells. […]
Data was acquired in decay-corrected counts per second (CPS) and subsequently analyzed using TraceDrawer (1.9.2, Ridgeview Instruments AB, Uppsala, Sweden). […]

A short description of series [3]: PET-based biodistribution in naïve mice.
Protocol: For the time of the experiments, female CD-1 mice (n = 4; 8–10 weeks; 37–40 g) were kept in a dedicated climatic chamber with free access to water and food under a 12:12 h dark: light cycle at a constant temperature (24 °C). The animals were anesthetized (Anaesthesia Unit U-410, agntho’s, Lidingö, Sweden) with isoflurane (2.0%, 300 mL/min) delivered in a 20% oxygen/80% air mixture (Gas Blender 100 Series, MCQ instruments, Rome, Italy) and their body temperature maintained at 37 °C with a thermal bed system. […] Each PET image was corrected for random coincidences, dead time, scatter, and attenuation (AC) based on a whole body (WB) MR scan. The reconstruction parameters for the list mode data were 3D-ordered subset expectation maximization (OSEM), 4 iterations, 6 subsets, energy window: 400–600 keV, coincidence mode: 1–5, ring difference: 81. The PET data were collected by a continuous WB scan during the entire investigation. […] The brain region was identified using the mouse brain atlas template Ma-Benveniste-Mirrione-FDG. The activity data are expressed as the SUVmean of the overall ROI.

Structures are written as SMILES.

Turning to `Cc1cccc(NC(=O)c2nn(Cc3ccc([18F])cc3)c3c2CN(C(=O)c2ccc[nH]2)CC3(C)C)c1` [[18F]SK60], the logD in series [1] worked out at 2.3 ± 0.5. The internalized radioligand in the series with IDH1R132H–U251 cells was 0.089 ± 0.02 % AD/μg protein. Besides, in series [2], the “real-time radioligand binding to live cells” value was “Reliable binding of [18F]SK60 could not be observed”. For the same compound, the accumulation in gallbladder in series [3] (PET, gallbladder, 30 min, n = 2) is 60 SUVmean. In series [3] (PET, liver, 30 min, n = 2), the accumulation in liver was 1.6 SUVmean. In series [3] (brain, 15 min p.i.), this compound had a brain uptake of around 0.3 SUVmean.

(Values after publication PMC12257540, “From Inhibitors to PET: SAR-Based Development of [^18F]SK60 for mIDH1 Imaging” (Journal of Medicinal Chemistry, 2025).)
